Earlier results on 6 molecules are cited in publication PMC7467712, “Physical Mechanisms Governing Substituent Effects on Arene–Arene Interactions in a Protein Milieu” (The Journal of Physical Chemistry. B, 2020).

Usually IC50 stands for the midpoint of a concentration-inhibition curve.

This series has as its system Mus musculus AChE. Further details: method as in PMID 23984975. The settings on record: 95% confidence interval within parentheses, at least four replicates.
Turning to `CCN(CC)CCNS(=O)(=O)Cc1ccc(Cl)cc1` [AL011], the half-inhibitory concentration (IC50) was 12 µM.

Regarding `CCN(CC)CCNS(=O)(=O)Cc1ccccc1` [AL029], the IC50 is 139 µM.

As for `CCN(CC)CCNS(=O)(=O)Cc1ccc(F)cc1` [AL036], the 50% inhibitory concentration (IC50) is 40 µM.

Consider `CCN(CC)CCNS(=O)(=O)Cc1ccc(C(F)(F)F)cc1` [AL037], for which the IC50 is 12 µM.

As for `CCN(CC)CCNS(=O)(=O)c1cccc(C(F)(F)F)c1` [AL040], the IC50 is 22 µM.

On to `CCN(CC)CCNS(=O)(=O)c1cccc(OC)c1` [AL041], for which the half-inhibitory concentration (IC50) is 7 µM.
